# Measured values as given in patent US6737383B1, “Herbicidal oxadiazolidines” (priority 1999, dated 2004).
# Tests used:
# corn = assay: Test B pre/postemergence corn; type: in vivo, Zea mays
# In short: (§1)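 Response is a visual 0-to-10 score relative to untreated plants, where 0 means no effect and 10 means complete control, taken twelve to sixteen days after application. Treatments went onto soil at planting and onto foliage of 1- to 4-leaf plants, using a surfactant-containing non-phytotoxic solvent.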
# crabgrass = assay: Test B pre/postemergence crabgrass; type: in vivo, Digitaria sanguinalis
# In short: as §1
# bedstraw = assay: Test B pre/postemergence bedstraw; type: in vivo, Galium aparine
# In short: as §1
# wild oat = assay: Test B pre/postemergence wild oat; type: in vivo, Avena fatua
# In short: as §1
# cocklebur = assay: Test B pre/postemergence cocklebur; type: in vivo, Xanthium strumarium
# In short: as §1
# rape = assay: Test B pre/postemergence rape; type: in vivo, Brassica napus
# In short: as §1
# pigweed = assay: Test B pre/postemergence pigweed; type: in vivo, Amaranthus retroflexus
# In short: as §1
# rice = assay: Test B flood test rice; type: in vivo, Oryza sativa
# In short: (§2)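 Read-out is a visual response score from 0 (no effect) to 10 (complete control), assigned by comparison with untreated controls. Treatment was applied at the 2-leaf stage, and plants stayed in the greenhouse for twelve to sixteen days before scoring.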
# velvetleaf = assay: Test B pre/postemergence velvetleaf; type: in vivo, Abutilon theophrasti
# In short: as §1
# smallflower flatsedge = assay: Test B flood test smallflower flatsedge; type: in vivo, Cyperus difformis
# In short: as §2
# morningglory = assay: Test B pre/postemergence morningglory; type: in vivo, Ipomoea hederacea
# In short: as §1
# wheat = assay: Test B pre/postemergence wheat; type: in vivo, Triticum aestivum
# In short: as §1
# soybean = assay: Test B pre/postemergence soybean; type: in vivo, Glycine max
# In short: as §1
# giant foxtail = assay: Test B pre/postemergence giant foxtail; type: in vivo, Setaria faberii
# In short: as §1
# duck salad = assay: Test B flood test duck salad; type: in vivo, Heteranthera limosa
# In short: as §2
# purple nutsedge = assay: Test B pre/postemergence purple nutsedge; type: in vivo, Cyperus rotundus
# In short: as §1
# [1] = Postemergence, Rate 31 g/ha, visual rating, scale 0 to 10 (0 no effect, 10 complete control)
# [2] = Preemergence, Rate 31 g/ha, visual rating, scale 0 to 10 (0 no effect, 10 complete control)
# [3] = Preemergence, Rate 62 g/ha, scale of 0 to 10 where 0 is no effect and 10 is complete control
# [4] = Preemergence, Rate 250 g/ha, scale of 0 to 10 where 0 is no effect and 10 is complete control
# [5] = Rate 62 g/ha, Postemergence, scale 0 to 10 (0 no effect, 10 complete control)
# [6] = Rate 125 g/ha, Postemergence, scale of 0 to 10 where 0 is no effect and 10 is complete control
# [7] = Rate 125 g/ha, Preemergence, scale of 0 to 10 where 0 is no effect and 10 is complete control
# [8] = Rate 250 g/ha, Postemergence, scale of 0 to 10 where 0 is no effect and 10 is complete control
# [9] = Rate 31 g/ha, Pre-emergence section (flood test species), scale 0 to 10
# [10] = Rate 62 g/ha, headed Pre-emergence (flood test species), scale 0 to 10 (0 no effect, 10 complete control)
# [11] = Rate 125 g/ha, Pre-emergence, flood test species, scale 0 to 10 where 0 is no effect and 10 is complete control
# [12] = Rate 250 g/ha, Pre-emergence, flood-test species, scale 0 to 10, 0 is no effect, 10 is complete control
structure (smiles),measurement,setting,value
CC(C)N(C(=O)n1oc(=O)n(CCCCF)c1=O)c1ccc(F)cc1 [Compound 289],Corn plant response rating,corn; [1],0
same,Corn plant response rating,corn; [2],0
same,Corn plant response rating,corn; [3],0
same,Corn plant response rating,corn; [4],2
same,Corn plant response rating,corn; [5],0
same,Corn plant response rating,corn; [6],0
same,Corn plant response rating,corn; [7],0
same,"Plant response rating, Corn",corn; [8],0
same,Crabgrass plant response rating,crabgrass; [1],0
same,Crabgrass plant response rating,crabgrass; [2],1
same,Crabgrass plant response rating,crabgrass; [3],2
same,Crabgrass plant response rating,crabgrass; [4],4
same,Crabgrass plant response rating,crabgrass; [5],3
same,Crabgrass plant response rating,crabgrass; [6],5
same,Crabgrass plant response rating,crabgrass; [7],3
same,"Plant response rating, Crabgrass",crabgrass; [8],9
same,Bedstraw plant response rating,bedstraw; [1],0
same,Bedstraw plant response rating,bedstraw; [2],0
same,Bedstraw plant response rating,bedstraw; [3],0
same,Bedstraw plant response rating,bedstraw; [4],7
same,Bedstraw plant response rating,bedstraw; [5],0
same,Bedstraw plant response rating,bedstraw; [6],3
same,Bedstraw plant response rating,bedstraw; [7],4
same,"Plant response rating, Bedstraw",bedstraw; [8],8
same,Wild oats plant response rating,wild oat; [1],0
same,Wild oats plant response rating,wild oat; [2],0
same,Wild oats plant response rating,wild oat; [3],1
same,Wild oats plant response rating,wild oat; [4],8
same,Wild oats plant response rating,wild oat; [5],0
same,Wild oats plant response rating,wild oat; [6],3
same,"Plant response rating, Wild oats",wild oat; [8],3
same,Cocklebur plant response rating,cocklebur; [1],0
same,Cocklebur plant response rating,cocklebur; [2],0
same,Cocklebur plant response rating,cocklebur; [3],0
same,Cocklebur plant response rating,cocklebur; [4],0
same,Cocklebur plant response rating,cocklebur; [5],0
same,Cocklebur plant response rating,cocklebur; [6],1
same,Cocklebur plant response rating,cocklebur; [7],0
same,"Plant response rating, Cocklebur",cocklebur; [8],2
same,Rape plant response rating,rape; [1],0
same,Rape plant response rating,rape; [2],0
same,Rape plant response rating,rape; [3],0
same,Rape plant response rating,rape; [4],10
same,Rape plant response rating,rape; [5],0
same,Rape plant response rating,rape; [6],2
same,Rape plant response rating,rape; [7],8
same,"Plant response rating, Rape",rape; [8],2
same,Redroot pigweed plant response rating,pigweed; [1],0
same,Redroot pigweed plant response rating,pigweed; [2],5
same,Redroot pigweed plant response rating,pigweed; [3],5
same,Redroot pigweed plant response rating,pigweed; [4],8
same,Redroot pigweed plant response rating,pigweed; [5],0
same,Redroot pigweed plant response rating,pigweed; [6],5
same,Redroot pigweed plant response rating,pigweed; [7],6
same,"Plant response rating, Redroot pigweed",pigweed; [8],7
same,Rice plant response rating,rice; [9],0
same,Rice plant response rating,rice; [10],0
same,Rice plant response rating,rice; [11],0
same,Rice plant response rating,rice; [12],1
same,Velvetleaf plant response rating,velvetleaf; [1],0
same,Velvetleaf plant response rating,velvetleaf; [2],0
same,Velvetleaf plant response rating,velvetleaf; [3],3
same,Velvetleaf plant response rating,velvetleaf; [4],7
same,Velvetleaf plant response rating,velvetleaf; [5],0
same,Velvetleaf plant response rating,velvetleaf; [6],0
same,Velvetleaf plant response rating,velvetleaf; [7],6
same,"Plant response rating, Velvetleaf",velvetleaf; [8],3
same,S. Flatsedge plant response rating,smallflower flatsedge; [9],0
same,S. Flatsedge plant response rating,smallflower flatsedge; [10],0
same,S. Flatsedge plant response rating,smallflower flatsedge; [11],0
same,S. Flatsedge plant response rating,smallflower flatsedge; [12],0
same,Morningglory plant response rating,morningglory; [1],2
same,Morningglory plant response rating,morningglory; [2],0
same,Morningglory plant response rating,morningglory; [3],0
same,Morningglory plant response rating,morningglory; [4],0
same,Morningglory plant response rating,morningglory; [5],3
same,Morningglory plant response rating,morningglory; [6],6
same,Morningglory plant response rating,morningglory; [7],0
same,"Plant response rating, Morningglory",morningglory; [8],8
same,Wheat plant response rating,wheat; [1],0
same,Wheat plant response rating,wheat; [2],0
same,Wheat plant response rating,wheat; [3],0
same,Wheat plant response rating,wheat; [4],2
same,Wheat plant response rating,wheat; [5],2
same,Wheat plant response rating,wheat; [6],5
same,Wheat plant response rating,wheat; [7],2
same,"Plant response rating, Wheat",wheat; [8],7
same,Soybean plant response rating,soybean; [1],0
same,Soybean plant response rating,soybean; [2],0
same,Soybean plant response rating,soybean; [3],0
same,Soybean plant response rating,soybean; [4],0
same,Soybean plant response rating,soybean; [5],2
same,Soybean plant response rating,soybean; [6],3
same,Soybean plant response rating,soybean; [7],0
same,"Plant response rating, Soybean",soybean; [8],4
same,Giant foxtail plant response rating,giant foxtail; [1],2
same,Giant foxtail plant response rating,giant foxtail; [2],9
same,Giant foxtail plant response rating,giant foxtail; [3],10
same,Giant foxtail plant response rating,giant foxtail; [4],10
same,Giant foxtail plant response rating,giant foxtail; [5],2
same,Giant foxtail plant response rating,giant foxtail; [6],5
same,Giant foxtail plant response rating,giant foxtail; [7],10
same,"Plant response rating, Giant foxtail",giant foxtail; [8],7
same,Ducksalad plant response rating,duck salad; [9],0
same,Ducksalad plant response rating,duck salad; [10],0
same,Ducksalad plant response rating,duck salad; [11],0
same,Ducksalad plant response rating,duck salad; [12],0
same,Nutsedge plant response rating,purple nutsedge; [1],0
same,Nutsedge plant response rating,purple nutsedge; [2],0
same,Nutsedge plant response rating,purple nutsedge; [3],0
same,Nutsedge plant response rating,purple nutsedge; [4],0
same,Nutsedge plant response rating,purple nutsedge; [5],0
same,Nutsedge plant response rating,purple nutsedge; [6],0
same,Nutsedge plant response rating,purple nutsedge; [7],0
same,"Plant response rating, Nutsedge",purple nutsedge; [8],0
